Experimental data reported in patent publication US20220220103A1, “CYCLIN-DEPENDENT KINASE INHIBITORS” (SPV THERAPEUTICS INC., priority 2018, published 2022).
“And” between values parts separate entries of the source, which are not always exact repeats. Equal values may be shown once. Read-outs that look alike come from different tables or passages of the source.

Columns and labels:
Assay type in all cases: biochemical
CDK1/B = CDK1/B (Homo sapiens, UniProt P06493); experiment: Inhibition assay, CDK1/B; details: Table 3a; read-out: CDK1/B IC50
Method: (§1) The reaction was terminated by the addition of EDTA. The plates were analyzed using a Caliper LabChip 3000.
(§2) Additional inhibition assays were performed as described above.

CDK7 CyclinH = CDK7 CyclinH (Homo sapiens, UniProt P50613); experiment: Inhibition assay, CDK7 CyclinH
Method: as §1, §2

CDK2-CYCLINA = CDK2-CYCLINA (Homo sapiens, UniProt P24941); experiment: Microfluidic LabChip inhibition assay, CDK2-CYCLINA; details: ATP 50 μM
Method: as §1, §2

CDK4-CYCLIND1 = CDK4-CYCLIND1 (Homo sapiens, UniProt P11802); experiment: Microfluidic LabChip inhibition assay, CDK4-CYCLIND1; details: ATP 200 μM
Method: as §1, §2

CDK6-CYCLIND3 = CDK6-CYCLIND3 (Homo sapiens, UniProt Q00534); experiment: Microfluidic LabChip inhibition assay, CDK6-CYCLIND3; details: ATP 300 μM
Method: as §1, §2

CDK9-CYCLINT1 = CDK9-CYCLINT1 (Homo sapiens, UniProt P50750); experiment: Microfluidic LabChip inhibition assay, CDK9-CYCLINT1; details: ATP 10 μM
Method: as §1, §2

[1] = Table 3a, second values in parentheses on the line below, not explained, read-out: CDK4 CyclinD1 IC50
[2] = Table 3b, second values in parentheses on the line below, not explained, read-out: CDK4 CyclinD1 IC50
[3] = Table 3a, read-out: CDK6 CyclinD3 IC50
[4] = Table 2, 25° C., read-out: CDK6 IC50
[5] = Table 2, 25° C., read-out: CDK4 IC50

Sequence of CDK9-CYCLINT1 (P50750 whole entry): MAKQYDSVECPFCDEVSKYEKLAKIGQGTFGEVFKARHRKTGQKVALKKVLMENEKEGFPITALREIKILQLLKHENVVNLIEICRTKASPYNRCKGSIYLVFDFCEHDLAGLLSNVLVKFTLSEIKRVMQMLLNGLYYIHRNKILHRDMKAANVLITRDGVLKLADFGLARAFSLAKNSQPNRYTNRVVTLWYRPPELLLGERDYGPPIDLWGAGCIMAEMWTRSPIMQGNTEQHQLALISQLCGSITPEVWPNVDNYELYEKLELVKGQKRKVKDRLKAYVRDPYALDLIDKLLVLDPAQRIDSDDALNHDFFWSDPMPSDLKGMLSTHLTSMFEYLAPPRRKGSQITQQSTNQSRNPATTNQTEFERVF
Sequence of CDK9-CYCLINT1 (O60563 whole entry partner): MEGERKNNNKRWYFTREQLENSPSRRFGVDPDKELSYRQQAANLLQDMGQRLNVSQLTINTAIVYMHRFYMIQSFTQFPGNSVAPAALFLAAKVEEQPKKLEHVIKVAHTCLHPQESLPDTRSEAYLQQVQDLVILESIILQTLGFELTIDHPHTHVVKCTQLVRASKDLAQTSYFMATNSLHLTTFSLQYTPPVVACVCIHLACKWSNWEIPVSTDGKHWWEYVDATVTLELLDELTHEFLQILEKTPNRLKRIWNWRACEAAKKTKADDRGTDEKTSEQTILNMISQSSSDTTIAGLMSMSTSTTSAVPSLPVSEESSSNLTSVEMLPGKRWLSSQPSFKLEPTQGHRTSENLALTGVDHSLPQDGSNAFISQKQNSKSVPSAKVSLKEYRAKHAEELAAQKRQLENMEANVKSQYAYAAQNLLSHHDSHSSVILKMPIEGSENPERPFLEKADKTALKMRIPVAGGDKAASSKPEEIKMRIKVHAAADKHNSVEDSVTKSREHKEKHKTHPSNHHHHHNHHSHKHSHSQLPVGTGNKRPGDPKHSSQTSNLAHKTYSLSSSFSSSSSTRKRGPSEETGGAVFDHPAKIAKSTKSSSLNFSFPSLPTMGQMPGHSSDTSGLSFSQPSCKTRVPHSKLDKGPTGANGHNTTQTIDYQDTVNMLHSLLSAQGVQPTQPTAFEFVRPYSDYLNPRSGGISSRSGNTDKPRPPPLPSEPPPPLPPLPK
Sequence of CDK7 CyclinH (P50613 whole entry): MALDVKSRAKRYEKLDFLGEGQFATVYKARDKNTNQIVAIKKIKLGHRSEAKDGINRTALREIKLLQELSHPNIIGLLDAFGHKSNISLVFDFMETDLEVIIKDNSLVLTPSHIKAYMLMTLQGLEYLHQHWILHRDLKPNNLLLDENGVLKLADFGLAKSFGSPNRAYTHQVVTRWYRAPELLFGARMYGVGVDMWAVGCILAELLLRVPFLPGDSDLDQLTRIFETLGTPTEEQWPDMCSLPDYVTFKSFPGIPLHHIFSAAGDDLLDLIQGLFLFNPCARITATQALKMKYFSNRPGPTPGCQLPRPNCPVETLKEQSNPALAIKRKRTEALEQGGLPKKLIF
Sequence of CDK7 CyclinH (P51946 whole entry partner): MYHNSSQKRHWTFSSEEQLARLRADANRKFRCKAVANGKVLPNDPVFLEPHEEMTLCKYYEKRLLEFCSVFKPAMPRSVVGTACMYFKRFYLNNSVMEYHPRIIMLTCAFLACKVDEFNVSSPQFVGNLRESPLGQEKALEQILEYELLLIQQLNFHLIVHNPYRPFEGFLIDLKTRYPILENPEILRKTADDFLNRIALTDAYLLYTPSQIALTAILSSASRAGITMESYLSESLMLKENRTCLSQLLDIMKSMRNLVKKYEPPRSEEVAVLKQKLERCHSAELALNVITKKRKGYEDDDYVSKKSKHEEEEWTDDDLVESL
Sequence of CDK7 CyclinH (P51948 whole entry partner): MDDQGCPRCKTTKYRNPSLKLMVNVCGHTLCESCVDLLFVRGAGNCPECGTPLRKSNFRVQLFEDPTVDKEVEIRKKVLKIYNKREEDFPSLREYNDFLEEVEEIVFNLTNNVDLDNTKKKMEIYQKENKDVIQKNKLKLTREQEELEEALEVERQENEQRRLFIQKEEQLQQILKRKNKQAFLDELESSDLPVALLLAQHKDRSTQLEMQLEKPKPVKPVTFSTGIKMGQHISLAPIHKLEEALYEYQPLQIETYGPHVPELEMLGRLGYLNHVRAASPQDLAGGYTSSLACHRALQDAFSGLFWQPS
Sequence of CDK6-CYCLIND3 (Q00534 whole entry): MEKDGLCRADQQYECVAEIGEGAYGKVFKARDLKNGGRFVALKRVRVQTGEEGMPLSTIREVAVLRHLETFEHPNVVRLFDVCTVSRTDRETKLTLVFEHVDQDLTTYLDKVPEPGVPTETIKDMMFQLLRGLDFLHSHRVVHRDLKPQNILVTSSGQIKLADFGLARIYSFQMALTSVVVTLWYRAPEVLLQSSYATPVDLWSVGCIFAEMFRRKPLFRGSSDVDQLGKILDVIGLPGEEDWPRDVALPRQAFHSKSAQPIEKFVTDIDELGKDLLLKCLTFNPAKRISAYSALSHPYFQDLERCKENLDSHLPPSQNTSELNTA
Sequence of CDK6-CYCLIND3 (P30281 whole entry partner): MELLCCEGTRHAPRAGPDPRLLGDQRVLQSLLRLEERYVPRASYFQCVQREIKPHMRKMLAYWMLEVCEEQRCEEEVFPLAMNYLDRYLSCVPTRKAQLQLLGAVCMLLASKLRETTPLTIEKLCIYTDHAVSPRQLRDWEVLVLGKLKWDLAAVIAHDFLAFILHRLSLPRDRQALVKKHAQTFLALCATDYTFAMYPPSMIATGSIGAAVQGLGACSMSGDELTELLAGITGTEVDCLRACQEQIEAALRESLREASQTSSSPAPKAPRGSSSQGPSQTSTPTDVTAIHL
Sequence of CDK4-CYCLIND1 (P11802 whole entry): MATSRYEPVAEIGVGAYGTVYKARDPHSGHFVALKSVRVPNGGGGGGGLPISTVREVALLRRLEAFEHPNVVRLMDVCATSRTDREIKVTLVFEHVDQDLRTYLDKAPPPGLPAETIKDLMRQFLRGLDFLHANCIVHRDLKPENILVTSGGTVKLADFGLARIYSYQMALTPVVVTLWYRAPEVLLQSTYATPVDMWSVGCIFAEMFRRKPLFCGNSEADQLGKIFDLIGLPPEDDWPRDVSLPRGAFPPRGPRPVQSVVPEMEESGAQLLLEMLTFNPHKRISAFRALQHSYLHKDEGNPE
Sequence of CDK4-CYCLIND1 (P24385 whole entry partner): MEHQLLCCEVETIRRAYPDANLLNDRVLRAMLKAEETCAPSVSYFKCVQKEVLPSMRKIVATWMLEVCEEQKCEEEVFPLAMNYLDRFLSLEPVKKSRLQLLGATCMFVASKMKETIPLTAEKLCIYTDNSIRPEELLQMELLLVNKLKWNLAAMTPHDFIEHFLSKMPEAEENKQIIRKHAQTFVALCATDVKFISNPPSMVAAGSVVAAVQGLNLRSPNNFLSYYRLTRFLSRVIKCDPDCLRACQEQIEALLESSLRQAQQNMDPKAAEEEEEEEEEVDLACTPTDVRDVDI
Sequence of CDK1/B (P06493 whole entry): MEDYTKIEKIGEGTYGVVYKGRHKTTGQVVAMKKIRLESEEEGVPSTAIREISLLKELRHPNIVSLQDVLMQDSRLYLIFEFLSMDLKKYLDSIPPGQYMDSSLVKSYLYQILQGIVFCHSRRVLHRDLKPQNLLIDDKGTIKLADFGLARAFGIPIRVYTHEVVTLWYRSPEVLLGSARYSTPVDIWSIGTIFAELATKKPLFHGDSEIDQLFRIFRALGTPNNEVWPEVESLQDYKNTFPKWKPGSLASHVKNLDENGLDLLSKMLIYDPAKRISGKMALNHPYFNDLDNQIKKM
Sequence of CDK1/B (P14635 whole entry partner): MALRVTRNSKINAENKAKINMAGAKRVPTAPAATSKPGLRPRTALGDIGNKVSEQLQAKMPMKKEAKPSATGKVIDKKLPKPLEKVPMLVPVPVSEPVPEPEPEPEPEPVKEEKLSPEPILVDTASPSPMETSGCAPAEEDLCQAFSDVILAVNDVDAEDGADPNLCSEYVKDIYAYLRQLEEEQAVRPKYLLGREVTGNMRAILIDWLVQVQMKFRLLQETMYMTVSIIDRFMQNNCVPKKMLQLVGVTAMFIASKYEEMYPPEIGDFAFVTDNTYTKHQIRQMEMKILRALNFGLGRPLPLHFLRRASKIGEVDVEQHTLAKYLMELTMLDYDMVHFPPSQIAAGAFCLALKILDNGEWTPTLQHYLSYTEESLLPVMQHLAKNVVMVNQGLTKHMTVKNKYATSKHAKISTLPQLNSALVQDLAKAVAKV

SMILES	IC50 (CDK4-CYCLIND1; [1])	IC50 (CDK4-CYCLIND1; [2])	IC50 (CDK6-CYCLIND3; [3]) [nM]	IC50 (CDK6-CYCLIND3; [4]) [nM]	IC50 (CDK4-CYCLIND1; [5]) [nM]	also measured
CC(=O)c1c(C)c2cnc(Nc3ccc(OCCN(C)C)c(C)c3)nc2n(C2CCCC2)c1=O [Compound B61, 6-acetyl-8-cyclopentyl-2-((4-(2-(dimethylamino)ethoxy)-3-methylphenyl)amino)-5-methylpyrido[2,3-d]pyrimidin-7(8H)-one]	1600 nM	1600 nM	3950			IC50 (CDK7 CyclinH; Table 3a): > 100000 nM; IC50 (CDK7 CyclinH; Table 3b): > 100000 nM; IC50 (CDK2-CYCLINA; Table 3a): 7730 nM; IC50 (CDK2-CYCLINA; Table 3b): 7730 nM; IC50 (CDK9-CYCLINT1; Table 3a): 790 nM; IC50 (CDK9-CYCLINT1; Table 3b): 790 nM
CC(=O)c1c(C)c2cnc(Nc3ccc(OCCN(C)C)cc3)nc2n(C2CCCC2)c1=O [Compound B60, 6-acetyl-8-cyclopentyl-2-((4-(2-(dimethylamino)ethoxy)phenyl)amino)-5-methylpyrido[2,3-d]pyrimidin-7(8H)-one]	3 nM and 1.6 nM	3 nM and 1.6 nM	10.1			IC50 (CDK7 CyclinH; Table 3a): 1100 nM; IC50 (CDK7 CyclinH; Table 3b): 1100 nM; IC50 (CDK2-CYCLINA; Table 3a): 77.5 nM; IC50 (CDK2-CYCLINA; Table 3b): 77.5 nM; IC50 (CDK9-CYCLINT1; Table 3a): 31.8 nM; IC50 (CDK9-CYCLINT1; Table 3b): 31.8 nM
CC(C)N1CCN(c2ccc(Nc3ncc4cc(C#N)c(=O)n(C5CCCC5)c4n3)c(F)c2)CC1 [Compound B19, 8-cyclopentyl-2-((2-fluoro-4-(4-isopropylpiperazin-1-yl)phenyl)amino)-7-oxo-7,8-dihydropyrido[2,3-d]pyrimidine-6-carbonitrile]				89.8	69.1	
N#Cc1cc2cnc(Nc3ccc(OCCN4CCCC4)cn3)nc2n(C2CCCC2)c1=O [Compound B7, 8-cyclopentyl-7-oxo-2-((5-(2-(pyrrolidin-1-yl)ethoxy)pyridin-2-yl)amino)-7,8-dihydropyrido[2,3-d]pyrimidine-6-carbonitrile]				103	101	
N#Cc1cc2cnc(Nc3cc(C(F)(F)F)c(N4CCNCC4)cn3)nc2n(C2CCCC2)c1=O [Compound B10, 8-cyclopentyl-7-oxo-2-((5-(piperazin-1-yl)-4-(trifluoromethyl)pyridin-2-yl)amino)-7,8-dihydropyrido[2,3-d]pyrimidine-6-carbonitrile]				9240	2820	
N#Cc1cc2cnc(Nc3ccc(OCCN4CCCCC4)cn3)nc2n(C2CCCC2)c1=O [Compound B12, 8-cyclopentyl-7-oxo-2-((5-(2-(piperidin-1-yl)ethoxy)pyridin-2-yl)amino)-7,8-dihydropyrido[2,3-d]pyrimidine-6-carbonitrile]				61.9	39.3	
N#Cc1cc2cnc(Nc3ccc(C4=CCNCC4)cn3)nc2n(C2CCCC2)c1=O [Compound B9, 8-cyclopentyl-7-oxo-2-((1′,2′,3′,6′-tetrahydro-[3,4′-bipyridin]-6-yl)amino)-7,8-dihydropyrido[2,3-d]pyrimidine-6-carbonitrile]				37.2	33.8	
N#Cc1cc2cnc(Nc3ccc(N4CCNCC4)cn3)nc2n(C23CC(C2)C3)c1=O [Compound B2, 8-(bicyclo[1.1.1]pentan-1-yl)-7-oxo-2-((5-(piperazin-1-yl)pyridin-2-yl)amino)-7,8-dihydropyrido[2,3-d]pyrimidine-6-carbonitrile]				253	307	
COc1cc(Nc2ncc3c(C)c(C(C)=O)c(=O)n(C4CCCC4)c3n2)ccc1OCCN(C)C [Compound B62, 6-acetyl-8-cyclopentyl-2-((4-(2-(dimethylamino)ethoxy)-3-methoxyphenyl)amino)-5-methylpyrido[2,3-d]pyrimidin-7(8H)-one]	26.3 nM and 14 nM	26.3 nM and 14 nM	37.5			IC50 (CDK7 CyclinH; Table 3a): 1300 nM; IC50 (CDK7 CyclinH; Table 3b): 1300 nM; IC50 (CDK2-CYCLINA; Table 3a): 280 nM; IC50 (CDK2-CYCLINA; Table 3b): 280 nM; IC50 (CDK9-CYCLINT1; Table 3a): 336 nM; IC50 (CDK9-CYCLINT1; Table 3b): 336 nM
N#Cc1cc2cnc(Nc3ccc(N4CC5(CNC5)C4)cc3)nc2n(C2CCCC2)c1=O [Compound B31, 2-((4-(2,6-diazaspiro[3.3]heptan-2-yl)phenyl)amino)-8-cyclopentyl-7-oxo-7,8-dihydropyrido[2,3-d]pyrimidine-6-carbonitrile]				8.29	2.41	
CC(=O)c1c(C)c2cnc(Nc3ccc(N(C)CCN(C)C)cc3)nc2n(C23CC(C2)C3)c1=O [Compound B154, 6-acetyl-8-(bicyclo[1.1.1]pentan-1-yl)-2-((4-((2-(dimethylamino)ethyl)(methyl)amino)phenyl)amino)-5-methylpyrido[2,3-d]pyrimidin-7(8H)-one]						IC50 (CDK1/B): 1720 nM; IC50 (CDK7 CyclinH; Table 3a): 785 nM; IC50 (CDK7 CyclinH; Table 3b): 785 nM; IC50 (CDK2-CYCLINA; Table 3a): 1520 nM; IC50 (CDK2-CYCLINA; Table 3b): 1520 nM
N#Cc1cc2cnc(N3CCC(N4CCOCC4)CC3)nc2n(C2CCCC2)c1=O [Compound B20, 8-cyclopentyl-2-(4-morpholinopiperidin-1-yl)-7-oxo-7,8-dihydropyrido[2,3-d]pyrimidine-6-carbonitrile]				≥ 30000	15700	
CC(=O)c1c(C)c2cnc(Nc3ccc(OCCN(C)C)cn3)nc2n(C2CCCC2)c1=O [Compound B65, 6-acetyl-8-cyclopentyl-2-((5-(2-(dimethylamino)ethoxy)pyridin-2-yl)amino)-5-methylpyrido[2,3-d]pyrimidin-7(8H)-one]	1.47 nM	1.47 nM	46.7			
N#Cc1cc2cnc(Nc3ccc(N4CCOCC4)c(F)c3)nc2n(C2CCCC2)c1=O [Compound B24, 8-cyclopentyl-2-((3-fluoro-4-morpholinophenyl)amino)-7-oxo-7,8-dihydropyrido[2,3-d]pyrimidine-6-carbonitrile]				35.8	11.1	
CC(C)N1CCN(c2ccc(Nc3ncc4cc(C#N)c(=O)n(C5CCCC5)c4n3)nc2)CC1 [Compound B25, 8-cyclopentyl-2-((5-(4-isopropylpiperazin-1-yl)pyridin-2-yl)amino)-7-oxo-7,8-dihydropyrido[2,3-d]pyrimidine-6-carbonitrile]				19	7.51	
CN(C)[C@H]1CCN(c2ccc(Nc3ncc4cc(C#N)c(=O)n(C5CCCC5)c4n3)cn2)C1 [Compound B44, (S)-8-cyclopentyl-2-((6-(3-(dimethylamino)pyrrolidin-1-yl)pyridin-3-yl)amino)-7-oxo-7,8-dihydropyrido[2,3-d]pyrimidine-6-carbonitrile]				30.9	10.6	
CN1CCN(c2ccc(Nc3ncc4cc(C#N)c(=O)n(C5CCCC5)c4n3)cn2)CC1 [Compound B23, 8-cyclopentyl-2-((6-(4-methylpiperazin-1-yl)pyridin-3-yl)amino)-7-oxo-7,8-dihydropyrido[2,3-d]pyrimidine-6-carbonitrile]				33.2	11.5	
N#Cc1cc2cnc(Nc3ccc(OCCN4CCCC4)c(F)c3)nc2n(C2CCCC2)c1=O [Compound B30]				24.2	7.62	

Second part, led by results:

IC50 (CDK4-CYCLIND1; [1])	IC50 (CDK4-CYCLIND1; [2])	IC50 (CDK6-CYCLIND3; [3]) [nM]	IC50 (CDK6-CYCLIND3; [4]) [nM]	IC50 (CDK4-CYCLIND1; [5]) [nM]	SMILES	also measured
< 3.2 nM	< 3.2 nM				CC(=O)c1c(C)c2cnc(Nc3ccc(N(C)CCN(C)C)cc3)nc2n(C2CCCC2)c1=O [Compound B155, 6-acetyl-8-cyclopentyl-2-((4-((2-(dimethylamino)ethyl)(methyl)amino)phenyl)amino)-5-methylpyrido[2,3-d]pyrimidin-7(8H)-one]	IC50 (CDK1/B): 172 nM; IC50 (CDK7 CyclinH; Table 3a): 468 nM; IC50 (CDK7 CyclinH; Table 3b): 468 nM; IC50 (CDK2-CYCLINA; Table 3a): 81.6 nM; IC50 (CDK2-CYCLINA; Table 3b): 81.6 nM
370 nM	370 nM	2240			CNC(=O)c1cc2cnc(Nc3ccc(N4CCN(C)CC4)nc3)nc2n(C2CCCC2)c1=O [Compound B145, 8-cyclopentyl-N-methyl-2-((6-(4-methylpiperazin-1-yl)pyridin-3-yl)amino)-7-oxo-7,8-dihydropyrido[2,3-d]pyrimidine-6-carboxamide]	
715 nM	715 nM	1990			CN1CCN(c2ccc(Nc3ncc4cc(C(=O)N(C)C)c(=O)n(C5CCCC5)c4n3)nc2)CC1 [Compound B141, 8-cyclopentyl-N,N-dimethyl-2-((5-(4-methylpiperazin-1-yl)pyridin-2-yl)amino)-7-oxo-7,8-dihydropyrido[2,3-d]pyrimidine-6-carboxamide]	
47 nM	47 nM	81.7			N#Cc1cc2cnc(Nc3ccc(N4CCNCC4)c(F)c3)nc2n(C23CC(C2)C3)c1=O [Compound B147, 8-(bicyclo[1.1.1]pentan-1-yl)-2-((3-fluoro-4-(piperazin-1-yl)phenyl)amino)-7-oxo-7,8-dihydropyrido[2,3-d]pyrimidine-6-carbonitrile]	
48.8 nM	48.8 nM	298			CC(=O)c1c(C)c2cnc(Nc3ccc(OCCN4CCCCC4)cn3)nc2n(C2CCCC2)c1=O [Compound B67, 6-acetyl-8-cyclopentyl-5-methyl-2-((5-(2-(piperidin-1-yl)ethoxy)pyridin-2-yl)amino)pyrido[2,3-d]pyrimidin-7(8H)-one]	
7.4 nM	7.4 nM	76.2			CN1CCN(c2ccc(Nc3ncc4cc(C(=O)N(C)C)c(=O)n(C5CCCC5)c4n3)cc2F)CC1 [Compound B139, 8-cyclopentyl-2-((3-fluoro-4-(4-methylpiperazin-1-yl)phenyl)amino)-N,N-dimethyl-7-oxo-7,8-dihydropyrido[2,3-d]pyrimidine-6-carboxamide]	
